In patent publication US6759420B1, “Arylalkanoyl derivatives, processes for their preparation, their use and pharmaceutical compositions containing them” (Aventis Pharma Deutschland GmbH, priority 1999, dated 2004) one finds Ki data, which are given here for 31 compounds.

Structures can show the parent of a compound that is named as a salt.

factor Xa, sequence (P00742 235-488 limits assumed): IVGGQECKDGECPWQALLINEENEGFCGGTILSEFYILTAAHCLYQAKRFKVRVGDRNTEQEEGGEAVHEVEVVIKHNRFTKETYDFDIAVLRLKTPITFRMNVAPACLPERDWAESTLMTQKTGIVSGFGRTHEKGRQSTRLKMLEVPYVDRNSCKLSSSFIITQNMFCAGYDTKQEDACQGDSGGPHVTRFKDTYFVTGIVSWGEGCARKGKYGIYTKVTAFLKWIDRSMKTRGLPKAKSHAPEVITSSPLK
factor Xa, sequence (P00742 41-179 limits assumed): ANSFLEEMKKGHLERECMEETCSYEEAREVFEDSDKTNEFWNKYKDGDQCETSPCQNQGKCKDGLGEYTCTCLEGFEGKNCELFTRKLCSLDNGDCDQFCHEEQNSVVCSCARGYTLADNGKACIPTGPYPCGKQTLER

The target in this experiment is factor Xa (Homo sapiens, UniProt P00742). The experiment in a line: Factor Xa assay (Test 1a), chromogenic. Format: biochemical. To be noted: in vitro factor Xa assay Test 1a; human factor Xa 0.5 nM, substrate S-2765 140 μM, 25° C.; Ki from IC50 corrected for substrate competition. Set-up: purchased Enzyme Research Laboratories, Inc; South Bend, Ind. From the text:
The ability of a compound of formula (I) to inhibit factor Xa, thrombin, plasmin, elastase, and trypsin may be assessed by determining the concentration of compound of formula (I) that inhibits enzyme activity by 50% (IC50). Purified enzymes are used in chromogenic assays. To determine the inhibition constant, the IC50 value is corrected for competition with substrate using the formula:
Ki=IC50×(1/{1+((substrate concentration)/substrate Km)})
where Km is the Michaelis-Menten constant. Y. -C. Chen and W. H. Prusoff, Biochem. Pharmacol. 22: […] (1973), which is incorporated herein by reference.
TBS-PEG buffer (50 mM Tris-Cl, pH 7.8, 200 mM NaCl, 0.05% (w/v) PEG-8000, 0.02% (w/v) NaN3) is used for this assay. The IC50 is determined by combining in appropriate wells of a Costar half-area microtiter plate 25 μl human factor Xa (Enzyme Research Laboratories, Inc.; South Bend, Ind.) in TBS-PEG; 40 μl 10% (v/v) DMSO in TBS-PEG (uninhibited control) or various concentrations of the compound to be tested diluted in 10% (v/v) DMSO in TBS-PEG; and substrate S-2765 (N-benzyloxycarbonyl-D-Arg-Gly-L-Arg-p-nitroanilide; Kabi Pharmacia, Inc.; Franklin Ohio) in TBS-PEG.
The assays are performed by pre-incubating the compound of formula (I) plus enzyme for 10 min, then the assay is initiated by adding substrate to obtain a final volume of 100 μl. The initial velocity of chromogenic substrate hydrolysis is measured by the change in absorbance at 405 nm using a Bio-tek Instruments kinetic plate reader (Ceres UV900HDi) at 25° C. during the linear portion of the time course (usually 1.5 min after addition of substrate). The concentration of inhibitor that causes a 50% decrease in the rate of substrate hydrolysis is predicted by linear regression after plotting the relative rates of hydrolysis (compared to the uninhibited control) versus the log of the compound of formula (I) concentration. The enzyme concentration is 0.5 nM and substrate concentration is 140 μM.
For `N=C(N)c1ccc(CC(C(=O)NC(C(=O)NCC2CCN(C(=N)N)CC2)C2CCCCC2)c2ccc3ccccc3c2)cc1` (single isomer, unassigned; less polar) [Example 170], the Ki (commonly a dissociation constant, usually derived from enzyme kinetics or from competition with a known ligand) worked out at 0.033 µM.
Take `Cc1ccc(C(Cc2ccc(C(=N)N)cc2)C(=O)NC(C(=O)NCC2CCN(C(=N)N)CC2)C2CCCCC2)cc1` (single isomer, unassigned; less polar) [Example 172]: the Ki stood at 0.072 µM.
With `N=C(N)c1ccc(CC(C(=O)NC(C(=O)NCC2CCN(C(=N)N)CC2)C2CCCCC2)c2cccc(Cl)c2)cc1` (single isomer, unassigned; less polar) [Example 176] the figure was 0.001 µM.
With `N=C(N)c1ccc(CC(C(=O)NC(C(=O)NCC2CCN(C(=N)N)CC2)C2CCCCC2)c2ccc(Br)cc2)cc1` (single isomer, unassigned; less polar) [Example 177] the figure was 0.001 µM; with `CN(Cc1ccccc1)C(=O)[C@H](CCCNC(=N)N)NC(=O)C(NC(=O)C(Cc1ccc(C(=N)N)cc1)C1CCCCC1)C1CCCCC1` (single isomer, unassigned; less polar) [Example 183], 0.025 µM.
Turning to `CCCCOC(=O)[C@H](CCCNC(=N)N)NC(=O)[C@@H](NC(=O)C(Cc1ccc(C(=N)N)cc1)C1CCCCC1)C1CCCCC1` (single isomer, unassigned; less polar) [Example 188], the inhibition constant Ki was determined as 0.022 µM.
As for `CCCOC(=O)C(CCCNC(=N)N)NC(=O)C(NC(=O)C(Cc1ccc(C(=N)N)cc1)C1CCCCC1)C1CCCCC1` (single isomer, unassigned; less polar) [Example 189], the figure is 0.02 µM; as for `N=C(N)c1ccc(CC(C(=O)N[C@H](C(=O)NCC2CCN(C(=N)N)CC2)C2CCCCC2)c2ccc(Cl)cc2)cc1` (single isomer, unassigned; less polar) [Example 216], 0.019 µM; as for `N=C(N)c1ccc(CC(C(=O)N[C@H](C(=O)NCC2CCC(C(=N)N)CC2)C2CCCCC2)c2cccc(Br)c2)cc1` (single isomer, unassigned; less polar) [Example 219], 0.005 µM.
As for `N=C(N)c1ccc(CC(C(=O)N[C@H](C(=O)NCC2CCN(C(=N)N)CC2)C2CCCCC2)c2ccccc2)cc1` (single isomer, unassigned; less polar) [Example 222], the figure is 0.043 µM; as for `CC(=N)N1CCC(CNC(=O)C(NC(=O)C(Cc2ccc(C(=N)N)cc2)c2cccc(Br)c2)C2CCCCC2)CC1` (single isomer, unassigned; less polar) [Example 223], 0.001 µM; as for `N=C(N)c1ccc(CC(C(=O)N[C@H](C(=O)NCC2CCN(C(=N)N)CC2)C2CCCCC2)c2ccccc2Cl)cc1` (single isomer, unassigned; less polar) [Example 230], 0.001 µM.
In turn, `N=C(N)c1ccc(CC(C(=O)N[C@H](C(=O)NCC2CCN(C(=N)N)CC2)C2CCCCC2)c2ccc(C(F)(F)F)cc2)cc1` (single isomer, unassigned; less polar) [Example 232] showed a Ki of 0.024 µM.
With `N=C(N)c1ccc(CC(C(=O)N[C@H](C(=O)NCC2CCN(C(=N)N)CC2)C2CCCCC2)c2ccccc2OC(F)(F)F)cc1` (single isomer, unassigned; less polar) [Example 233] the figure was 0.033 µM; with `N=C(N)c1ccc(CC(C(=O)N[C@H](C(=O)NCC2CCN(C(=N)N)CC2)C2CCCCC2)c2ccccc2F)cc1` (single isomer, unassigned; less polar) [Example 235], 0.012 µM; with `N=C(N)c1ccc(CC(C(=O)N[C@H](C(=O)NCC2CCN(C(=N)N)CC2)C2CCCCC2)c2ccccc2Br)cc1` (single isomer, unassigned; less polar) [Example 236], 0.005 µM.
As for `N=C(N)c1ccc(CC(C(=O)N[C@H](C(=O)NCC2CCN(C(=N)N)CC2)C2CCCCC2)c2cccc3ccccc23)cc1` (single isomer, unassigned; less polar) [Example 241], the figure is 0.025 µM; as for `CC(C)OC(=O)[C@H](CCCNC(=N)N)NC(=O)[C@@H](NC(=O)C(Cc1ccc(C(=N)N)cc1)c1cccc(Br)c1)C1CCCCC1` (single isomer, unassigned; less polar) [Example 242], 0.002 µM; as for `CN(C)C(=O)[C@H](CCCNC(=N)N)NC(=O)[C@@H](NC(=O)C(Cc1ccc(C(=N)N)cc1)c1cccc(Br)c1)C1CCCCC1` (single isomer, unassigned; less polar) [Example 246], 0.0007 µM.
With `CS(=O)(=O)c1cccc(C(Cc2ccc(C(=N)N)cc2)C(=O)N[C@H](C(=O)NCC2CCN(C(=N)N)CC2)C2CCCCC2)c1` (single isomer, unassigned; less polar) [Example 252] the figure was 0.031 µM; with `CC(=N)N1CCC(CNC(=O)[C@@H](NC(=O)C(Cc2ccc(C(=N)N)cc2)c2cccc(C(F)(F)F)c2)C2CCCCC2)CC1` (single isomer, unassigned; less polar) [Example 258], 0.008 µM.
In turn, `N=C(N)NCCCC(NC(=O)C(NC(=O)C(Cc1ccc(C(=N)N)cc1)c1cccc(Cl)c1)C1CCCCC1)C(N)=O` (single isomer, unassigned; more polar) [Example 125] returned a Ki of 2.57 µM.
For `Cc1ccc(C(Cc2ccc(C(=N)N)cc2)C(=O)NC(C(=O)NCc2ccc(C(=N)N)cc2)C2CCCCC2)cc1` (single isomer, unassigned; more polar) [Example 153], the Ki worked out at 5.84 µM.
With `Cc1ccccc1C(Cc1ccc(C(=N)N)cc1)C(=O)NC(C(=O)NCC1CCN(C(=N)N)CC1)C1CCCCC1` (single isomer, unassigned; more polar) [Example 162] the figure was 0.025 µM; with `CC(C)OC(=O)[C@H](CCCNC(=N)N)NC(=O)[C@@H](NC(=O)C(Cc1ccc(C(=N)N)cc1)c1cccc(Br)c1)C1CCCCC1` (single isomer, unassigned; more polar) [Example 243], 0.025 µM; with `N=C(N)NCCC[C@H](NC(=O)[C@@H](NC(=O)C(Cc1ccc(C(=N)N)cc1)c1cccnc1)C1CCCCC1)C(N)=O` (stereo partly drawn) [Example 10, 2-(S)-{2-(S)-[3-(4-Carbamimidoyl-phenyl)-2-(R,S)-pyridin-3-yl-propionylamino]-2-cyclohexyl-acetylamino}-5-guanidino-pentanoic acid amide trifluoroactic acid salt], 0.0009 µM.
With `N=C(N)NCCC[C@H](NC(=O)C(NC(=O)C(Cc1ccc(C(=N)N)cc1)C1CCCCC1)C1CCCCC1)C(=O)NCc1cccs1` (stereo partly drawn) [Example 192, 2-(S)-{2-[3-(4-Carbamimidoyl-phenyl)-2-cyclohexyl-propionylamino]-2-cyclohexyl-acetylamino}-5-guanidino-pentanoic acid (thiophen-2-ylmethyl)-amide trifluoroacetic acid salt] the figure was 0.044 µM; with `N=C(N)NCCC[C@H](NC(=O)C(NC(=O)C(Cc1ccc(C(=N)N)cc1)C1CCCCC1)C1CCCCC1)C(=O)NCc1ccncc1` (stereo partly drawn) [Example 194, 2-(S)-{2-[3-(4-Carbamimidoyl-phenyl)-2-cyclohexyl-propionylamino]-2-cyclohexyl-acetylamino}-5-guanidino-pentanoic acid (pyridin-4-ylmethyl)-amide trifluoroacetic acid salt], 0.034 µM.
The compound `N=C(N)NCCC[C@H](NC(=O)C(NC(=O)C(Cc1ccc(C(=N)N)cc1)C1CCCCC1)C1CCCCC1)C(=O)NC(c1ccccc1)c1ccccc1` (stereo partly drawn) [Example 195, 2-(S)-2-[3-(4-Carbamimidoyl-phenyl)-2-cyclohexyl-propionylamino]-2-cyclohexyl-acetylamino}-5-guanidino-pentanoic acid benzhydryl-amide trifluoroacetic acid salt] gave a Ki of 0.032 µM.
With `N=C(N)NCCC[C@H](NC(=O)C(NC(=O)C(Cc1ccc(C(=N)N)cc1)C1CCCCC1)C1CCCCC1)C(=O)NCc1ccccc1` (stereo partly drawn) [Example 196, 2-(S)-{2-[3-(4-Carbamimidoyl-phenyl)-2-cyclohexyl-propionylamino]-2-cyclohexyl-acetylamino}-5-guanidino-pentanoic acid benzylamide trifluoroacetic acid salt] the figure was 0.039 µM; with `N=C(N)NCCC[C@H](NC(=O)C(NC(=O)C(Cc1ccc(C(=N)N)cc1)C1CCCCC1)C1CCCCC1)C(=O)NCc1ccc(Cl)cc1` (stereo partly drawn) [Example 201, 2-(S)-{2-[3-(4-Carbamimidoyl-phenyl)-2-cyclohexyl-propionylamino]-2-cyclohexyl-acetylamino}-5-guanidino-pentanoic acid 4-chloro-benzylamide trifluoroacetic acid salt], 0.042 µM.
